Data published in ChEMBL document CHEMBL5226330, “Synthesis of Oxazino[4,3-a]indoles and biological applications” (2021).

Species on record: Mus musculus
Test: Antidepressant activity against […] Swiss albino mouse model assessed as […]
Type: functional

SMILES	ED50 [mg/kg]
CNCCC1(C)OCCn2c1c(C)c1ccccc12.Cl (stereo not drawn)	0.5
Cc1c2n(c3ccccc13)CCOC2(C)CCN(C)C.Cl (stereo not drawn)	2
Cc1c2n(c3ccccc13)CCOC2(C)CCCN(C)C.Cl (stereo not drawn)	2.9
